Data on seven compounds can be found in patent publication US7247438B1, “Methods of identifying agents which enhance caspase activity” (priority 1997, dated 2007).

The target in one assay is T1, caspase-1 (Homo sapiens, UniProt P29466).
T1 sequence (P29466 120-297 limits assumed): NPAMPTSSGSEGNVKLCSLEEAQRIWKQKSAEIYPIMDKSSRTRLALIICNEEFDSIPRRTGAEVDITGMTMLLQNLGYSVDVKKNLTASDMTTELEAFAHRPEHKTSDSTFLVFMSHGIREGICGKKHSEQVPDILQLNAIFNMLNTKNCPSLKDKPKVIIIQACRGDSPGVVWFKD
T1 sequence (P29466 317-404 limits assumed): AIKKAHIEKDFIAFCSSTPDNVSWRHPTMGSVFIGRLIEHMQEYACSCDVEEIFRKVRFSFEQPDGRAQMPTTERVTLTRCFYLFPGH
The conditions noted are these: caspase-1 versus caspase-3; cited from earlier work.

The subject of assay [1] is CD4+ CD8+ DP thymocytes in FTOC of C57BL/6 mice. As to the kind of experiment: glucocorticoid (dexamethasone)-induced DP thymocyte death in FTOC, FACS analysis. The assay is classed as cell-based, mouse. For orientation: Flow cytometry measures light scatter and fluorescence of single cells or particles in a stream.
Assay [2] has as its target T2, recombinant Mch2a (caspase-6) (Homo sapiens, UniProt P55212).
T2 construct: made in house
T2 sequence (P55212 24-179 limits assumed): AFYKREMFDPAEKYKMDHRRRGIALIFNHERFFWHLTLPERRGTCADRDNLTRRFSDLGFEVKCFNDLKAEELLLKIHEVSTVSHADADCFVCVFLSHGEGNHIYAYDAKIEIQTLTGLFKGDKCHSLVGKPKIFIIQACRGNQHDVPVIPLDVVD
T2 sequence (P55212 194-293 limits assumed): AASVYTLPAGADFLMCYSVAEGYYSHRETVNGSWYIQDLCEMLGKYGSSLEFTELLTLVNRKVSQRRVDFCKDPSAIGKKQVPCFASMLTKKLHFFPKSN
Briefly: Western blot: binding of biotinylated substrate to recombinant Mch2a. To be noted: FIG. 2B; 15 minutes with 2 mM biotin-DEVDamk.

Assay [3] concerns thymic caspase (~17 kD subunit). Briefly: Western blot of thymic lysates: binding of biotinylated substrate to activated thymic caspase and competition. Set-up: species or system mouse. To be noted: for blocking of biotin-DEVDamk binding to the antigen-activated caspase: pretreatment of thymic lysates with excess (100-fold molar, FIG. 2D) of inhibitor. On the technique in general: A western blot detects proteins with antibodies after separation by electrophoresis.

Assay [4] concerns the target T3, recombinant Yama/caspase-3 (Homo sapiens, UniProt P42574).
T3 construct: made in house
T3 sequence (P42574 29-175 limits assumed): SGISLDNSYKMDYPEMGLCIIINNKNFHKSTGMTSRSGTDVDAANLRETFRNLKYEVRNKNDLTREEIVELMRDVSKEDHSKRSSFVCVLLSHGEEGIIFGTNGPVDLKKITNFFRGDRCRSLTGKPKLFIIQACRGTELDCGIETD
T3 sequence (P42574 176-277 limits assumed): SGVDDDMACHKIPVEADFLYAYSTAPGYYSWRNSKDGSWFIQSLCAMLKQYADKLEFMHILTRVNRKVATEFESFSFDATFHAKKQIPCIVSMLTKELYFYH
As to the kind of experiment: Western blot: binding of biotinylated substrate to recombinant Yama. The conditions noted are these: FIG. 2B; 15 minutes with 2 mM biotin-DEVDamk.

In assay [5] the test system is activated thymic caspase in N15 tg RAG-2−/− H-2b FTOC. Format: cell-based, mouse. To be noted: for effect of pretreatment on VSV8-induced caspase activation (biotin-DEVDamk staining): FTOC, inhibitor pretreatment, then VSV8 4 hours.
In assay [6] the test system is thymocytes in N15 tg RAG-2−/− H-2b FTOC. The assay is classed as cell-based, mouse.
Assay [7] deals with Rat thymocytes in suspension. To be noted: cited from earlier work.
Assay [8] deals with Drosophila Schneider cells. The conditions noted are these: added to Drosophila Schneider cells; cited from earlier work.
Assay [9] relates to CD4+ CD8+ DP thymocytes in FTOC of C57BL/6 mice. As to the kind of experiment: anti-CD3ε mAb (2C11)-induced deletion of DP thymocytes in FTOC, FACS analysis. Set-up: effect on anti-CD3ε (2C11) mAb-induced deletion of DP thymocytes: dose or concentration left out as unconfirmed. Format: cell-based, mouse.
For assay [10], the system named is DP thymocytes in FTOC of N15 TCR tg RAG-2−/− H-2b mice. The assay is classed as cell-based, mouse. The conditions noted are these: for effect on antigen (VSV8)-induced depletion of DP thymocytes: N15 FTOC, 2 hours with 100 μM inhibitor followed by 18 hours with 10 μM VSV8.
Assay [11] relates to thymocytes in non-tg RAG-2−/− FTOC. Format: cell-based, mouse.
The subject of assay [12] is activated thymic caspase in adult N15 tg RAG-2−/− H-2b mice. The conditions noted are these: mouse, in vivo.
The subject of a further assay is thymic caspase. As to the kind of experiment: caspase activation in thymic lysates of adult mice after tail vein peptide injection (Western blot). To be noted: mouse, in vivo.

“Also recorded” adds a separate entry of the source. Peptide text beside a SMILES is read from it. * marks the point of attachment. Cbz = O=C(OCc1ccccc1)*; CH2F = FC* A value given as a limit tells only on which side of the number the result lay.

Turning to `CC(=O)N[C@@H](Cc1ccc(O)cc1)C(=O)N[C@H](C(=O)N[C@@H](C)C(=O)N[C@H](C=O)CC(=O)O)C(C)C` [Ac-YVAD-CHO], at caspase-1, the “fold lower concentration to inhibit caspase-1 than required to inhibit caspase-3” value is ~10,000 fold.

For the compound `C[C@@H]1C[C@H]2[C@@H]3CCC4=CC(=O)C=C[C@]4(C)[C@@]3(F)[C@@H](O)C[C@]2(C)[C@@]1(O)C(=O)CO` [Dexamethasone], the “percentage of DP thymocytes” value in [1] (FTOC, control 74%) came to 19%.

With `Cc1cccc(C)c1C(=O)OCC(=O)C(CC(=O)O)NC(=O)[C@@H](NC(=O)[C@H](CCC(=O)O)NC(=O)[C@H](CC(=O)O)NC(=O)CCCC[C@@H]1SC[C@@H]2NC(=O)N[C@@H]21)C(C)C` (some centres unmarked) [biotin-DEVDamk, N-(Biotinylaspartylglutamylvalinyl)aspartic acid [(2,6-Dimethylbenzoyl)oxy]methyl Ketone], the “binding of biotinylated substrate to recombinant Mch2a (caspase-6)” value in [2] is “bind”. For the same compound, the “detection of / affinity for the activated thymic caspase by biotinylated substrate” value in assay [3] is given as “highest affinity”. Also, the “binding of biotinylated substrate to recombinant Yama/caspase-3” value in [4] is given as “bind”.

For `COC(=O)C[C@H](NC(=O)[C@H](C)NC(=O)[C@@H](NC(=O)OCc1ccccc1)C(C)C)C(=O)CF` [zVADfmk, N-benzyloxycarbonyl-Val-Ala-Asp-fluoromethylketone, b-methyl ester] (Cbz-Val-Ala-Asp(OMe)-CH2F), the “effect of pretreatment on VSV8-induced caspase activation (biotin-DEVDamk staining)” value in [5] was “blocked”. The “number of TdT (TUNEL) positive apoptotic cells in histological sections (in words)” value (“number … in histological sections (in words)” for short) in [6] is given as “reduces the number of TdT+ cells to that of the control; also recorded: blocked”. For the same compound, the “effect on dexamethasone (glucocorticoid)-induced death/deletion of DP thymocytes” value in [1] (2-hour pretreatment with 100 μM zVADfmk) was “protects; also recorded: blocked”. Besides, in assay [7], the “effect on glucocorticoid-induced death” value is given as “blocked”. For the same compound, the “blocking of biotin-DEVDamk binding to the antigen-activated caspase” value in [3] is on record as “blocks binding; also recorded: prevents binding”. In assay [8], the “effect on apoptosis induced by expression of REAPER protein” value is “blocks the induction of apoptosis”. For the same compound, the “effect on anti-CD3ε (2C11) mAb-induced deletion of DP thymocytes” value in assay [9] (2-hour preincubation, harvested 18 hours later) is given as “inhibited; also recorded: blocked”. In addition, in assay [9] (FTOC C57BL/6, no 2C11), the “effect of agent alone on percentage of DP thymocytes in FTOC” value is reported as “does not alter”. For the same compound, in [10], the “effect on antigen (VSV8)-induced depletion of DP thymocytes” value is given as “completely blocks; also recorded: blocked; also recorded: blocks depletion”.

As for `COC(=O)CC(NC(=O)C(C)NC(=O)C(NC(=O)OCc1ccccc1)C(C)C)C(C)=O` (centres unmarked) [zVADmk, N-(Z-Valinylalanyl)aspartic acid methyl ketone, b-methyl ester], the “effect of pretreatment on VSV8-induced caspase activation (biotin-DEVDamk staining)” value in assay [5] is reported as “not”. Also, in assay [6], the “number … in histological sections (in words)” value is on record as “levels of TdT positive cells similar to cultures treated with VSV8 alone; also recorded: no effect”. Moreover, in assay [3], the “blocking of biotin-DEVDamk binding to the antigen-activated caspase” value was “does not block”. The “effect on antigen (VSV8)-induced depletion of DP thymocytes” value in assay [10] was “has no effect; also recorded: fails to block”.

As to FAPGNYPAL [SEV9], in assay [10], the “depletion/death of DP thymocytes induced by peptide (in words)” value is on record as “does not result in thymocyte death”.

Turning to RGYVYQGL [VSV8], in [5], the “biotin-DEVDamk staining (activation of thymic caspase) in FTOC sections” value was “widespread biotin-DEVDamk staining throughout the cortex”. Besides, the “TdT positive cells mm2, non-tg” value in [11] is listed as 9 mm2. Besides, in assay [6], the “TdT positive cells mm2, N15tg #1” value came to 429 mm2; the “TdT positive cells mm2, N15tg #2” value was 456 mm2; the “TdT positive cells mm2, N15tg #3” value was found to be 441 mm2; the “number … in histological sections (in words)” value is given as “obvious increase”. Further, the “biotin-DEVDamk staining of thymic sections” value in assay [12] was “widespread biotin-DEVDamk staining”. In addition, in assay [10], the “depletion/death of DP thymocytes induced by peptide (in words)” value is “massive depletion” and the “percent CD4+ CD8+ DP thymocytes” value worked out at 21. The “time to induction of an active caspase after tail vein injection” value in the assay on thymic caspase is at most 2 h.
